Measured values taken from patent publication US12729377B2, “RNAi agents and compositions for inhibiting expression of angiopoietin-like 3 (ANGPTL3), and methods of use” (Arrowhead Pharmaceuticals, Inc., priority 2017, dated 2026).
In the oligonucleotide strings, read from the 5' end, every base follows the letter of its sugar. An asterisk marks phosphorothioate; unmarked linkages are phosphodiester. Other units and linkages are bracketed, terminal groups are in braces. A string of capitals states the bases alone. {NAG37} = tridentate N-acetyl-galactosamine targeting ligand, structure (NAG37)s; [invAb] = inverted abasic unit; m = 2'-O-methyl; f = 2'-fluoro

Assays:
[1] = tested on: ANGPTL3 protein; experiment: Example 4: serum ANGPTL3 protein by ELISA in mice; type: in vivo, C57bl/6 mice; conditions: for Avg ANGPTL3 (Average ANGPTL3 Protein Normalized to Pre-Treatment and Control): 1.0 mg/kg single subcutaneous dose on day 1, serum, female C57bl/6 mice
Protocol: (§1) To assess the in vivo activity of ANGPTL3 RNAi agents that are designed to target additional positions on the ANGPTL3 gene, six- to eight-week-old female C57bl/6 mice were used. Pre-dose serum samples were taken at day −1 after a four hour fast. At day 1, each mouse was given a single subcutaneous administration of 200 μl containing either 1 mg/kg (mpk) or 0.5 mg/kg (mpk) of an ANGPTL3 RNAi agent in D5W (dextrose in 5% water), or control (D5W) with no RNAi agent, according to the dosing groups recited in Table 17.
(§2) Each of the RNAi agents included a modified sequence and an N-acetyl-galactosamine-containing targeting ligand conjugated to the 5′ terminal end of the sense strand. (See Tables 3, 4, and 5 for modified sequences and targeting ligand structures). The injections were performed between the skin and muscle (i.e. subcutaneous injections) into the loose skin over the neck and shoulder area. Three (3) mice in each group were tested (n=3). Serum was collected on days 8, 15, 22, 29, and day 43 (Groups 1-3, 9, and 11-13 only). Mice were fasted for four hours prior to each collection. ANGPTL3 protein levels in serum were measured by ELISA assay (R&D Systems), according to the manufacturer's recommendations. Triglycerides, high-density lipoprotein (HDL), and total cholesterol in serum were measured on a Cobas® Integra 400 (Roche Diagnostics), according to the manufacturer's recommendations.
(§3) The ANGPTL3 protein levels, triglyceride levels, HDL levels, and total cholesterol levels for each animal were normalized. For normalization, the level of ANGPTL3 protein, triglyceride, HDL, and total cholesterol, respectively, for each animal at a time point, was divided by the pre-treatment level of expression in that animal (in this case at day −1) to determine the ratio of expression “normalized to pre-treatment.” Expression at a specific time point was then normalized to the D5W control group by dividing the “normalized to pre-treatment” ratio for an individual animal by the mean “normalized to pretreatment” ratio of all mice in the D5W control group.

[2] = tested on: ANGPTL3 gene; experiment: Example 4: serum triglycerides in mice; type: in vivo
Protocol: as §1, §2, §3

[3] = tested on: ANGPTL3 gene; experiment: Example 4: serum HDL in mice; type: in vivo, C57bl/6 mice
Protocol: as §1, §2, §3

[4] = tested on: ANGPTL3 gene; experiment: Example 4: serum LDL in mice; type: in vivo, C57bl/6 mice; conditions: for Avg LDL, normalized to pre-treatment and control: 1.0 mg/kg single SC injection on day 1, serum, n=3
Protocol: as §1, §2, §3

[5] = tested on: ANGPTL3 protein; experiment: Example 7: serum ANGPTL3 protein by ELISA in mice; type: in vivo, C57bl/6 mice; design: key: ratio: (level/pre-treatment day -1 level) ÷ mean of D5W control group
Protocol: (§4) To further assess the in vivo activity of additional ANGPTL3 RNAi agents that are designed to target position 304 on the ANGPTL3 gene, six- to eight-week-old female C57bl/6 mice were used. Pre-dose serum samples were taken at day −1 after a four hour fast. At day 1, each mouse was given a single subcutaneous administration of 200 μl containing 0.5 mg/kg (mpk) of an ANGPTL3 RNAi agent in D5W (dextrose in 5% water), or control (D5W) with no RNAi agent, according to the dosing groups recited in Table 31.
as §2, with “22,” for “22, 29,”, “29.” for “day 43 (Groups 1-3, 9, and 11-13 only).”, “Triglycerides, total cholesterol,” for “Triglycerides,”, “low-density lipoprotein (LDL)” for “total cholesterol”
(§5) The ANGPTL3 protein levels, triglyceride levels, total cholesterol levels, HDL levels, and LDL levels for each animal were normalized. For normalization, the level of ANGPTL3 protein, triglyceride, HDL, and total cholesterol, respectively, for each animal at a time point, was divided by the pre-treatment level of expression in that animal (in this case at day −1) to determine the ratio of expression “normalized to pre-treatment.” Expression at a specific time point was then normalized to the D5W control group by dividing the “normalized to pre-treatment” ratio for an individual animal by the mean “normalized to pretreatment” ratio of all mice in the D5W control group.

[6] = tested on: ANGPTL3 gene; experiment: Example 7: serum triglycerides in mice; type: in vivo, C57bl/6 mice; design: key: ratio: (level/pre-treatment day -1 level) ÷ mean of D5W control group
Protocol: as §4
as §2, with “22,” for “22, 29,”, “29.” for “day 43 (Groups 1-3, 9, and 11-13 only).”, “Triglycerides, total cholesterol,” for “Triglycerides,”, “low-density lipoprotein (LDL)” for “total cholesterol”
as §5

[7] = tested on: ANGPTL3 gene; experiment: Example 7: serum HDL in mice; type: in vivo; design: key: ratio: (level/pre-treatment day -1 level) ÷ mean of D5W control group; conditions: 0.5 mg/kg single SC injection day 1, female C57bl/6 mice, n=3, ratio to D5W control
Protocol: as §4
as §2, with “22,” for “22, 29,”, “29.” for “day 43 (Groups 1-3, 9, and 11-13 only).”, “Triglycerides, total cholesterol,” for “Triglycerides,”, “low-density lipoprotein (LDL)” for “total cholesterol”
as §5

[8] = tested on: ANGPTL3 gene; experiment: Example 7: serum LDL in mice; type: in vivo; design: key: ratio: (level/pre-treatment day -1 level) ÷ mean of D5W control group; conditions: 0.5 mg/kg single SC injection day 1, female C57bl/6 mice, n=3, ratio to D5W control
Protocol: as §4
as §2, with “22,” for “22, 29,”, “29.” for “day 43 (Groups 1-3, 9, and 11-13 only).”, “Triglycerides, total cholesterol,” for “Triglycerides,”, “low-density lipoprotein (LDL)” for “total cholesterol”
as §5

[9] = Day 8, 1.0 mg/kg single subcutaneous dose on day 1, female C57bl/6 mice
[10] = Day 15, 1.0 mg/kg single subcutaneous dose on day 1, female C57bl/6 mice
[11] = Day 22, 1.0 mg/kg single subcutaneous dose on day 1, female C57bl/6 mice
[12] = Day 29, 1.0 mg/kg single subcutaneous dose on day 1, female C57bl/6 mice
[13] = Day 43, 1.0 mg/kg single subcutaneous dose on day 1, female C57bl/6 mice
[14] = Day 8, 1.0 mg/kg single SC injection on day 1, n=3
[15] = Day 15, 1.0 mg/kg single SC injection on day 1, n=3
[16] = Day 22, 1.0 mg/kg single SC injection on day 1, n=3
[17] = Day 29, 1.0 mg/kg single SC injection on day 1, n=3
[18] = Day 43, 1.0 mg/kg single SC injection on day 1, n=3
[19] = Day 8, 0.5 mg/kg single SC injection on day 1, n=3
[20] = Day 15, 0.5 mg/kg single SC injection on day 1, n=3
[21] = Day 22, 0.5 mg/kg single SC injection on day 1, n=3
[22] = Day 29, 0.5 mg/kg single SC injection on day 1, n=3

Substance | Avg ANGPTL3 (Average ANGPTL3 Protein Normalized to Pre-Treatment and Control) ([1]; Day 8) | Avg ANGPTL3 (Average ANGPTL3 Protein Normalized to Pre-Treatment and Control) ([1]; Day 15) | Avg ANGPTL3 (Average ANGPTL3 Protein Normalized to Pre-Treatment and Control) ([1]; Day 22) | Avg ANGPTL3 (Average ANGPTL3 Protein Normalized to Pre-Treatment and Control) ([1]; Day 29) | Avg ANGPTL3 (Average ANGPTL3 Protein Normalized to Pre-Treatment and Control) ([1]; Day 43) | Avg TG (Average Triglycerides Normalized to Pre-Treatment and Control) [2, 9] | Avg TG (Average Triglycerides Normalized to Pre-Treatment and Control) [2, 10] | Avg TG (Average Triglycerides Normalized to Pre-Treatment and Control) [2, 11] | Avg TG (Average Triglycerides Normalized to Pre-Treatment and Control) [2, 12] | Avg TG (Average Triglycerides Normalized to Pre-Treatment and Control) [2, 13] | Avg HDL, normalized to pre-treatment and control [3, 14] | Avg HDL, normalized to pre-treatment and control [3, 15] | Avg HDL, normalized to pre-treatment and control [3, 16] | Avg HDL, normalized to pre-treatment and control [3, 17] | Avg HDL, normalized to pre-treatment and control [3, 18] | Avg LDL, normalized to pre-treatment and control ([4]; Day 8) | Avg LDL, normalized to pre-treatment and control ([4]; Day 15) | Avg LDL, normalized to pre-treatment and control ([4]; Day 22) | Avg LDL, normalized to pre-treatment and control ([4]; Day 29) | Avg LDL, normalized to pre-treatment and control ([4]; Day 43) | other results
AD05488: RNAi agent duplex: antisense AM07235-AS, sense AM07234-SS (antisense mU*fA*mC*fUmGfAmUfCmAfAmAfUmAfUmGfUmUfGmAfG*mC; sense {NAG37}*[invAb]*mGmCmUmCmAmAmCmAfUfAfUmUmUmGmAmUmCmAmGmUmA*[invAb]) | 0.090 | 0.070 | 0.092 | 0.124 | 0.254 | 0.624 | 0.795 | 0.837 | 0.721 | 0.901 | 0.839 | 0.644 | 0.727 | 0.771 | 0.833 | 0.936 | 0.714 | 0.811 | 0.801 | 0.902 | ANGPTL3 protein normalized to pre-treatment and control ([1]; day 15, single 1 mg/kg subcutaneous, C57bl/6 mice): 0.070; ANGPTL3 protein normalized to pre-treatment and control ([1]; day 22, single 1 mg/kg subcutaneous, C57bl/6 mice): 0.092; knockdown of ANGPTL3 protein ([1]; days 15 and 22, single 1 mg/kg subcutaneous, C57bl/6 mice): greater than 90%; LDL levels reduced ([4]; day 29, single 1 mg/kg subcutaneous, C57bl/6 mice): ~20%; Avg ANGPTL3, normalized to pre-treatment and control [5, 19]: 0.339; Avg ANGPTL3, normalized to pre-treatment and control [5, 20]: 0.379; Avg ANGPTL3, normalized to pre-treatment and control [5, 21]: 0.346; Avg ANGPTL3, normalized to pre-treatment and control [5, 22]: 0.469; Avg TG, normalized to pre-treatment and control [6, 19]: 0.856; Avg TG, normalized to pre-treatment and control [6, 20]: 0.947; Avg TG, normalized to pre-treatment and control [6, 21]: 0.922; Avg TG, normalized to pre-treatment and control [6, 22]: 0.877; Avg HDL, normalized to pre-treatment and control ([7]; Day 8): 0.783; Avg HDL, normalized to pre-treatment and control ([7]; Day 15): 0.793; Avg HDL, normalized to pre-treatment and control ([7]; Day 22): 0.780; Avg HDL, normalized to pre-treatment and control ([7]; Day 29): 0.886; Avg LDL, normalized to pre-treatment and control ([8]; Day 8): 0.953; Avg LDL, normalized to pre-treatment and control ([8]; Day 15): 0.825; Avg LDL, normalized to pre-treatment and control ([8]; Day 22): 0.860; Avg LDL, normalized to pre-treatment and control ([8]; Day 29): 1.055
AD05418: RNAi agent duplex: antisense AM07159-AS, sense AM07158-SS (antisense mU*fU*mU*fGmAfAmUfUmAfAmUfGmUfCmCfAmUfGmGfG*mU; sense {NAG37}*[invAb]*mAmCmCmCmAmUmGmGfAfCfAmUmUmAmAmUmUmCmAmAmA*[invAb]) | 0.258 | 0.270 | 0.387 | 0.407 | 0.847 | 0.858 | 1.065 | 1.079 | 0.980 | 0.892 | 0.828 | 0.730 | 0.846 | 0.845 | 1.018 | 1.044 | 0.841 | 1.142 | 0.966 | 0.921 | Avg ANGPTL3, normalized to pre-treatment and control [5, 19]: 0.534; Avg ANGPTL3, normalized to pre-treatment and control [5, 20]: 0.565; Avg ANGPTL3, normalized to pre-treatment and control [5, 21]: 0.639; Avg ANGPTL3, normalized to pre-treatment and control [5, 22]: 0.758; Avg TG, normalized to pre-treatment and control [6, 19]: 0.830; Avg TG, normalized to pre-treatment and control [6, 20]: 0.655; Avg TG, normalized to pre-treatment and control [6, 21]: 0.815; Avg TG, normalized to pre-treatment and control [6, 22]: 0.586; Avg HDL, normalized to pre-treatment and control ([7]; Day 8): 0.907; Avg HDL, normalized to pre-treatment and control ([7]; Day 15): 0.857; Avg HDL, normalized to pre-treatment and control ([7]; Day 22): 0.910; Avg HDL, normalized to pre-treatment and control ([7]; Day 29): 1.048; Avg LDL, normalized to pre-treatment and control ([8]; Day 8): 1.160; Avg LDL, normalized to pre-treatment and control ([8]; Day 15): 0.928; Avg LDL, normalized to pre-treatment and control ([8]; Day 22): 0.950; Avg LDL, normalized to pre-treatment and control ([8]; Day 29): 1.131
